Test results: patent EP4722207A1, “OXOISOINDOLINYL-SUBSTITUTED TETRAHYDROPYRIMIDINEDIONE DERIVATIVE AND USE THEREOF” (Gluetacs Therapeutics (Shanghai) Co., Ltd., priority 2023, dated 2024)

Tests used:
WEE1 = target: T1, WEE1 (Homo sapiens, UniProt P30291+Q96SW2); assay: Western-blot assay, substrate protein degradation in hPBMCs: WEE1; format: cell-based
T1 construct: effects of the compounds of the present disclosure on the expression of target proteins in cells; endogenous in cells; host or cells: human PBMCs (hPBMCs)

IKZF1 = target: T2, IKZF1 (Homo sapiens, UniProt Q13422+Q96SW2); assay: Western-blot assay, substrate protein degradation in hPBMCs: IKZF1; format: cell-based
T2 construct: effects of the compounds of the present disclosure on the expression of target proteins in cells; endogenous in cells; host or cells: human PBMCs (hPBMCs)

IKZF2 = target: T3, IKZF2 (Homo sapiens, UniProt Q96SW2+Q9UKS7); assay: Western-blot assay, substrate protein degradation in hPBMCs: IKZF2; format: cell-based
T3 construct: effects of the compounds of the present disclosure on the expression of target proteins in cells; endogenous in cells; host or cells: human PBMCs (hPBMCs)

IKZF3 = target: T4, IKZF3 (Homo sapiens, UniProt Q96SW2+Q9UKT9); assay: Western-blot assay, substrate protein degradation in hPBMCs: IKZF3; format: cell-based
T4 construct: effects of the compounds of the present disclosure on the expression of target proteins in cells; endogenous in cells; host or cells: human PBMCs (hPBMCs)

CK1α = target: T5, CK1α (Homo sapiens, UniProt P48729+Q96SW2); assay: Western-blot assay, substrate protein degradation in hPBMCs: CK1α; format: cell-based
T5 construct: effects of the compounds of the present disclosure on the expression of target proteins in cells; endogenous in cells; host or cells: human PBMCs (hPBMCs)

GSPT1 = target: T6, GSPT1 (Homo sapiens, UniProt P15170+Q96SW2); assay: Western-blot assay, substrate protein degradation in hPBMCs: GSPT1; format: cell-based
T6 construct: effects of the compounds of the present disclosure on the expression of target proteins in cells; endogenous in cells; host or cells: human PBMCs (hPBMCs)

MM.1S = assay: Cell viability assay (CellTiter-Meiluncell Luminescent), tumor cell proliferation, MM.1S; details: Homo sapiens, MM1.S, 96 h
MGC803 = assay: Cell viability assay (CellTiter-Meiluncell Luminescent), tumor cell proliferation, MGC803; details: Homo sapiens, MGC-803, 96 h, read-out: inhibitory activity (IC50, nM) against tumor cells proliferation, MGC803
Procedure: On the following day, the test compounds of the present disclosure were subjected to serial dilution. […] Subsequently, 0.5 µL of the test compound dilution was transferred into the 96-well plate containing the cells, with each well containing 100 µL of cell culture medium. […] Into the 96-well plate, the diluted test compounds and corresponding detection reagents were added, resulting in final test compound concentrations of 500 nM and 10 nM, respectively.
(§1) After the cells were treated with the compounds of the present disclosure for a specified period, the cell viability assay reagent was added to the culture medium according to the kit's instructions to determine cell viability. […] All controls were treated using the same procedure as the compounds of the present disclosure. The growth inhibition curves for the compounds of the present disclosure were plotted using Prism GraphPad software, and the IC50 values were calculated therefrom.

[1] = target: T7, human Cereblon WT GST-tagged protein (Homo sapiens, UniProt Q96SW2); assay: CRBN-binding affinity, CEREBLON BINDING kit (HTRF); details: for inhibition at 0.5 µM: read-out: Inhibition Rate at 0.5 µM (%); for inhibition at 2 µM: read-out: Inhibition Rate at 2 µM (%)
T7 construct: purchased CISBIO 64BDCRBNPEH
From the text: The CEREBLON BINDING kits (specification: 10,000 tests; product number: Catalog # 64BDCRBNPEH; CISBIO company) was used to determine the CRBN binding ability of the compounds to be tested through a HTRF method (homogeneous time-resolved fluorescence). The specific methods are as follows: • 1. […] Specifically, diluent #9 (1X) solution was used as the diluent, and multiple concentration gradients were set. […] Into the 96-well plate, the diluted test compounds and corresponding detection reagents were added, resulting in final test compound concentrations of 2 µM and 0.5 µM, respectively. […] Then, 2.5 µL of human Cereblon WT GST-tagged protein solution was added to each well. Finally, 5 µL of the thoroughly mixed Thalidomide-Re reagent and GST Eu antibody working solution were added to each of the aforementioned wells. […] The blank control wells were sequentially added with 2.5 µL of diluent #9 (1X) solution, 2.5 µL of binding buffer, and 5 µL of thoroughly mixed Thalidomide-Re reagent and GST Eu antibody working solution. • 4. […] OD 620 nm control is the absorbance value of the blank control well at an emission wavelength of 620 nm. […] OD 620 nm Std0 is the absorbance value of the solvent control well at an emission wavelength of 620 nm.

H292 = assay: Cell viability assay (CellTiter-Meiluncell Luminescent), tumor cell proliferation, H292; details: Homo sapiens, NCI-H292, 96 h; for inhibition at 0.01 µM: read-out: Inhibition Rate at 10 nM (%); for inhibition at 0.5 µM: read-out: Inhibition Rate at 500 nM (%)
H2228 = assay: Cell viability assay (CellTiter-Meiluncell Luminescent), tumor cell proliferation, H2228; details: Homo sapiens, NCI-H2228, 96 h; for inhibition at 0.01 µM: read-out: Inhibition Rate at 10 nM (%); for inhibition at 0.5 µM: read-out: Inhibition Rate at 500 nM (%)
Procedure: (§2) The tumor cells used herein were cultured in a cell culture medium listed in table 2 at 37°C in an incubator with 5% CO2. Prior to experimentation, all cell lines used were correctly identified by STR profiling, and tested negative for mycoplasma contamination using a mycoplasma detection kit through routine screenings.
(§3) On the following day, the test compounds of the present disclosure were subjected to serial dilution. […] Subsequently, 0.5 µL of the test compound dilution was transferred into the 96-well plate containing the cells, with each well containing 100 µL of cell culture medium. […] Into the 96-well plate, the diluted test compounds and corresponding detection reagents were added, resulting in final test compound concentrations of 500 nM and 10 nM, respectively. The experimental procedure is described below using the diluted 2 µM test compound as an example.
as §1

MV-4-11 = assay: Cell viability assay (CellTiter-Meiluncell Luminescent), tumor cell proliferation, MV-4-11; details: Homo sapiens, MV4-11, 96 h; for inhibition at 0.01 µM: read-out: Inhibition Rate at 10 nM (%); for inhibition at 0.5 µM: read-out: Inhibition Rate at 500 nM (%)
MDA-MB-231 = assay: Cell viability assay (CellTiter-Meiluncell Luminescent), tumor cell proliferation, MDA-MB-231; details: Homo sapiens, MDA-MB-231, 96 h; for inhibition at 0.01 µM: read-out: Inhibition Rate at 10 nM (%); for inhibition at 0.5 µM: read-out: Inhibition Rate at 500 nM (%)
Procedure: as §2, §3, §1

[2] = compounds at 50 nM and 500 nM, 24 hours
[3] = 24 hours of compound treatment, 50 nM and 500 nM

T7 sequence (Q96SW2 whole entry): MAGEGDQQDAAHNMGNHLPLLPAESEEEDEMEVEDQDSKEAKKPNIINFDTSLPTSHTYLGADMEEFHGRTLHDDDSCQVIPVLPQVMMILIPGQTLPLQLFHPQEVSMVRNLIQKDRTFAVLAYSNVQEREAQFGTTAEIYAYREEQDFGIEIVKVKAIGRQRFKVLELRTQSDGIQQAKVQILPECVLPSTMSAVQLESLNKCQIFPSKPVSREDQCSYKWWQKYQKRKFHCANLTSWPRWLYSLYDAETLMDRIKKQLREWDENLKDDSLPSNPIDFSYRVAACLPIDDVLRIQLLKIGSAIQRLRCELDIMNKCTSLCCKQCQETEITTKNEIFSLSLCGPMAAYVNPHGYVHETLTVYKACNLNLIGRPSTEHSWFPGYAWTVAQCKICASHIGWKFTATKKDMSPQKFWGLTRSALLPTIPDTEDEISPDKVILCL
T6 sequence (P15170 whole entry): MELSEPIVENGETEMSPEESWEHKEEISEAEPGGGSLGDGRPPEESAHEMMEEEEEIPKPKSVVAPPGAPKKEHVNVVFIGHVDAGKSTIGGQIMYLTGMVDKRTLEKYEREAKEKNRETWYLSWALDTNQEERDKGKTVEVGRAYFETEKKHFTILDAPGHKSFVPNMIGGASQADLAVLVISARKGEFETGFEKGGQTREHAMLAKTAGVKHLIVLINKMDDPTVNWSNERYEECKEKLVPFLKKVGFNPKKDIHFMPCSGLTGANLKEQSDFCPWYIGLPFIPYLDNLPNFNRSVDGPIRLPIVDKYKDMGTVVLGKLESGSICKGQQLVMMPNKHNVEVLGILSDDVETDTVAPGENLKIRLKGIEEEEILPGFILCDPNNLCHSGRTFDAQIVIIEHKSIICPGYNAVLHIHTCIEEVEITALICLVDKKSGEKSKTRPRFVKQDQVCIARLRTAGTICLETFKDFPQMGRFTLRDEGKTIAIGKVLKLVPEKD
T6 sequence (Q96SW2 whole entry): as the sequence (Q96SW2 whole entry) above
T6 sequence (Q16531 whole entry partner): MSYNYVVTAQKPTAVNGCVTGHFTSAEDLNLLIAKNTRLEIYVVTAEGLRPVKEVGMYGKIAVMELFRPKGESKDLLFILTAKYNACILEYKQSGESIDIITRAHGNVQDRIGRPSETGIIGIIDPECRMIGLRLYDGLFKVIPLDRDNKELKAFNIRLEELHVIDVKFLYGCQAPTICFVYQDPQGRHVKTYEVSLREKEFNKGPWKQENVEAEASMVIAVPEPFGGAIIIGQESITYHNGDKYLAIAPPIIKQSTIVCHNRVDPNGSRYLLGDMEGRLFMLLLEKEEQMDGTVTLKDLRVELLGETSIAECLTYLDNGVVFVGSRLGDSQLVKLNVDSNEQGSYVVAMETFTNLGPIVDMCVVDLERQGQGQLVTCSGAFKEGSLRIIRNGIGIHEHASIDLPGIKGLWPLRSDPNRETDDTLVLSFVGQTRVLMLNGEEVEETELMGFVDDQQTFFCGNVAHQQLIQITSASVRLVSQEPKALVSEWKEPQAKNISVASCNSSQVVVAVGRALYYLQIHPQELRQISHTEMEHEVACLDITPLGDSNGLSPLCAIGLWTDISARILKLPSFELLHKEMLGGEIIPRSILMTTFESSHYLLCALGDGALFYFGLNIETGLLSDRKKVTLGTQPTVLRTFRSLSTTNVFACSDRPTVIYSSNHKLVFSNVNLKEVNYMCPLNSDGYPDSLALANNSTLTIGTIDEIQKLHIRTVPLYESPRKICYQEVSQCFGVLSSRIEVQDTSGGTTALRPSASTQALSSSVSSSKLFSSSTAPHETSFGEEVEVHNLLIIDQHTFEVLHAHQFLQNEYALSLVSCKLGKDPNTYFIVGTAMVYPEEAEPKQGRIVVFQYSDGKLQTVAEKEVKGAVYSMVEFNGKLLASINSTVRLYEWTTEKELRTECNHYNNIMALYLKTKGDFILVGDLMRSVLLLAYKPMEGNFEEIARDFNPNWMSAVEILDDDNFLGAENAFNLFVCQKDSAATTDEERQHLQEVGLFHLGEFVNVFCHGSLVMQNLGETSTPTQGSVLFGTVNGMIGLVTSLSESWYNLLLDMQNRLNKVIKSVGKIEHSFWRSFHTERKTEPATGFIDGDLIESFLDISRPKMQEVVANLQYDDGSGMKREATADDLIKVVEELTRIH
T4 sequence (Q9UKT9 whole entry): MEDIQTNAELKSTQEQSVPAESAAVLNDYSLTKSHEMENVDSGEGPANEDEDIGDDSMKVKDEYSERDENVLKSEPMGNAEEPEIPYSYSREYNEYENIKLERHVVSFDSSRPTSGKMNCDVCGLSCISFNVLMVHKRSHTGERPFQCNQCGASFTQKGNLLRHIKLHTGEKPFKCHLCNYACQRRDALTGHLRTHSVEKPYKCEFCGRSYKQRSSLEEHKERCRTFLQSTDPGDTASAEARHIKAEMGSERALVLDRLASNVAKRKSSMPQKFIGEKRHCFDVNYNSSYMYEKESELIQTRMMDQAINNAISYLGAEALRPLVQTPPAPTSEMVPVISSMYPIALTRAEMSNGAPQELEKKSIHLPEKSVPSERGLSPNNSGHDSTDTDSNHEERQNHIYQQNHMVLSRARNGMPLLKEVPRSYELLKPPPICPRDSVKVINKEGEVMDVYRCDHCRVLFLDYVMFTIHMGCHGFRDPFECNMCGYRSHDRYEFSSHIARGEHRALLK
T4 sequence (Q96SW2 whole entry): as the sequence (Q96SW2 whole entry) above
T4 sequence (Q16531 whole entry partner): as the sequence (Q16531 whole entry partner) above
T3 sequence (Q9UKS7 whole entry): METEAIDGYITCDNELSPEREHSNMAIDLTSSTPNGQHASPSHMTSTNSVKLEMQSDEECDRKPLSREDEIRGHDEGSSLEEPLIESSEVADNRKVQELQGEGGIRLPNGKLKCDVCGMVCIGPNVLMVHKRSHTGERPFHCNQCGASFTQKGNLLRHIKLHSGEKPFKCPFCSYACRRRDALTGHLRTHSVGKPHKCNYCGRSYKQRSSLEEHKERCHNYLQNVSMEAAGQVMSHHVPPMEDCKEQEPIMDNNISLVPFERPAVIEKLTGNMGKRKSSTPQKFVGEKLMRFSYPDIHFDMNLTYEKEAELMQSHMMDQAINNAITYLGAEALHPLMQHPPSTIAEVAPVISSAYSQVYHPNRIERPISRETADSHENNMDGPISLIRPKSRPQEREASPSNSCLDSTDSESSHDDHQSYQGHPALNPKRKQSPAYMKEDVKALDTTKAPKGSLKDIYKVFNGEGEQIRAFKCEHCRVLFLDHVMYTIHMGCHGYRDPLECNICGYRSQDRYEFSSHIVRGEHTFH
T3 sequence (Q96SW2 whole entry): as the sequence (Q96SW2 whole entry) above
T3 sequence (Q16531 whole entry partner): as the sequence (Q16531 whole entry partner) above
T1 sequence (P30291 whole entry): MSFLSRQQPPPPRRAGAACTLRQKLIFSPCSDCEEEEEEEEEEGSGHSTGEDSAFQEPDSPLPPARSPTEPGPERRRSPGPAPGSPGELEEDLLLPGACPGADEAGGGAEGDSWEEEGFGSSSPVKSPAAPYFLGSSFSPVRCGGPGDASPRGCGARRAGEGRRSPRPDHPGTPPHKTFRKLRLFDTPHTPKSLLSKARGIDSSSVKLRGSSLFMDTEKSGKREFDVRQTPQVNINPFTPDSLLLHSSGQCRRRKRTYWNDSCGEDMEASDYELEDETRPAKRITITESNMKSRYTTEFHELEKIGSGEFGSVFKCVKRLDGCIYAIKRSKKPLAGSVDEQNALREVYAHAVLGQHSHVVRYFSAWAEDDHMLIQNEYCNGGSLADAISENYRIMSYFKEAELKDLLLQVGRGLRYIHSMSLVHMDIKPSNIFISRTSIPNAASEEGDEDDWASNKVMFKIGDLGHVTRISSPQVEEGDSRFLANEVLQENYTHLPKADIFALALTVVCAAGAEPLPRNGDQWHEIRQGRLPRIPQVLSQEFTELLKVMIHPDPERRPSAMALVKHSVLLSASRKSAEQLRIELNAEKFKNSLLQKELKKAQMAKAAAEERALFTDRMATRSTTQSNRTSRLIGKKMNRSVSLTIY
T1 sequence (Q96SW2 whole entry): as the sequence (Q96SW2 whole entry) above
T1 sequence (Q16531 whole entry partner): as the sequence (Q16531 whole entry partner) above
T5 sequence (P48729 whole entry): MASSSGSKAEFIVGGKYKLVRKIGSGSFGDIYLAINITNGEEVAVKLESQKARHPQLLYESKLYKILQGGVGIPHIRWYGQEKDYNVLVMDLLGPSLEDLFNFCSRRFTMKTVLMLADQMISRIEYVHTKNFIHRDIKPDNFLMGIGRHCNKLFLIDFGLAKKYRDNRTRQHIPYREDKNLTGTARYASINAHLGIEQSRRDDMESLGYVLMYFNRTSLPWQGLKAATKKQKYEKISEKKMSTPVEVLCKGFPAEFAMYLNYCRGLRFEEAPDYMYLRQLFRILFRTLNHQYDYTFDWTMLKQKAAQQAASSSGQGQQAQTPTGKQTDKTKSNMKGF
T5 sequence (Q96SW2 whole entry): as the sequence (Q96SW2 whole entry) above
T5 sequence (Q16531 whole entry partner): as the sequence (Q16531 whole entry partner) above

Compound	inhibition at 0.5 µM [1] [%]	inhibition at 2 µM [1] [%]	inhibition at 0.01 µM (H292) [%]	inhibition at 0.5 µM (H292) [%]	inhibition at 0.01 µM (H2228) [%]	inhibition at 0.5 µM (H2228) [%]	inhibition at 0.01 µM (MV-4-11) [%]	inhibition at 0.5 µM (MV-4-11) [%]	inhibition at 0.01 µM (MDA-MB-231) [%]	inhibition at 0.5 µM (MDA-MB-231) [%]	also measured
O=C1CCN(N2Cc3cc(CN4CCN(c5cccc(Cl)c5Cl)CC4)ccc3C2=O)C(=O)N1 [GT-04853, 1-(5-((4-(2,3-dichlorophenyl)piperazin-1-yl)methyl)-1-oxoisoindolin-2-yl)dihydropyrimidine-2,4(1H,3H)-dione]	–	–	–	–	–	–	–	–	–	–	WEE1 substrate protein remaining % (WEE1; [2]): A ("A" is defined as 0% ≤ substrate protein remaining % ≤ 80%); IKZF1 substrate protein remaining % (IKZF1; [2]): A ("A" is defined as 0% ≤ substrate protein remaining % ≤ 80%); IKZF2 substrate protein remaining % (IKZF2; [2]): A ("A" is defined as 0% ≤ substrate protein remaining % ≤ 80%); IKZF3 substrate protein remaining % (IKZF3; [2]): B ("B" is defined as 80%< substrate protein remaining %≤ 100%); CK1α substrate protein remaining % (CK1α; [2]): B ("B" is defined as 80%< substrate protein remaining %≤ 100%); GSPT1 substrate protein remaining % (GSPT1; [2]): A ("A" is defined as 0% ≤ substrate protein remaining % ≤ 80%); IC50 (MM.1S; read-out: inhibitory activity (IC50, nM) against tumor cells proliferation, MM.1S): 100 to 300 nM; IC50 (MGC803): 500 to 1000 nM
O=C1CCN(N2Cc3cc(CN4CC=C(c5ncnc6scc(-c7ccccc7)c56)CC4)ccc3C2=O)C(=O)N1 [GT-08174, 1-(1-oxo-5-((4-(5-phenylthieno[2,3-d]pyrimidin-4-yl)-3,6-dihydropyridin-1(2H)-yl)methyl)isoindolin-2-yl)dihydropyrimidine-2,4(1H,3H)-dione]	20 to 30	53 to 60	10 to 15	20 to 40	15 to 20	20 to 25	25 to 30	10 to 18	18 to 25	25 to 40	–
O=C1CCN(N2Cc3cc(CN4CC=C(c5ncnc6sc(-c7ccccc7)cc56)CC4)ccc3C2=O)C(=O)N1 [GT-08173, 1-(1-oxo-5-((4-(6-phenylthieno[2,3-d]pyrimidin-4-yl)-3,6-dihydropyridin-1(2H)-yl)methyl)isoindolin-2-yl)dihydropyrimidine-2,4(1H,3H)-dione]	20 to 30	53 to 60	–	–	5 to 10	40 to 60	10 to 18	80 to 100	10 to 15	60 to 80	inhibition at 0.01 µM (MM.1S; read-out: Inhibition Rate at 10 nM (%)): -5 to 0%; inhibition at 0.5 µM (MM.1S; read-out: Inhibition Rate at 500 nM (%)): 80 to 100%
O=C1CCN(N2Cc3cc(CN4CCN(c5ncnc6sc7c(c56)CCC7)CC4)ccc3C2=O)C(=O)N1 [GT-08079, 1-(5-((4-(6,7-dihydro-5H-cyclopenta[4,5]thieno[2,3-d]pyrimidin-4-yl)piperazin-1-yl)methyl)-1-oxoisoindolin-2-yl)dihydropyrimidine-2,4(1H,3H)-dione]	20 to 30	53 to 60	20 to 40	20 to 40	15 to 20	20 to 25	40 to 60	40 to 60	18 to 25	10 to 15	substrate protein remaining % WEE1 (WEE1; [3]): A (0% ≤ substrate protein remaining % ≤ 80%); substrate protein remaining % IKZF1 (IKZF1; [3]): B (80%< substrate protein remaining %≤ 100%); substrate protein remaining % IKZF2 (IKZF2; [3]): B (80%< substrate protein remaining %≤ 100%); substrate protein remaining % IKZF3 (IKZF3; [3]): B (80%< substrate protein remaining %≤ 100%); substrate protein remaining % CK1α (CK1α; [3]): A (0% ≤ substrate protein remaining % ≤ 80%); substrate protein remaining % GSPT1 (GSPT1; [3]): A (0% ≤ substrate protein remaining % ≤ 80%)
